Laboratory results as given in US12207672B2, “Compounds that modulate GPR92 receptor activity and pet food products containing the same” (MARS, INCORPORATED, priority 2018, dated 2025).

System: fGPR92 receptor
Test: fGPR92 activation in CHO-K1 cells, calcium sensitive fluorescent dye (FLIPR Tetra), agonist mode
Format: cell-based, cat
Conditions: CHO-K1 cells stably expressing fGPR92
Method: The present example describes the activation of the cat GPR92 receptor (fGPR92) by various compounds and compositions in vitro. Samples that can function as GPR92 agonists were identified by in vitro functional characterization. The effectiveness of a sample in activating the fGPR92 receptor was evaluated. Methods: CHO-Kl cells stably expressing fGPR92 were used to screen 118 test samples to identify samples that can activate the fGPR92 receptor. Activation of the fGPR92 receptor was detected by changes in intracellular calcium levels using a calcium sensitive fluorescent dye. Cells without fGPR92 receptor expression (mock cells) were used as a control. A FLIPR® Tetra system was used for data capture. Each sample was first tested for its ability to activate fGPR92 at three different dose levels in both agonist mode and positive allosteric modulator mode. Active samples were further tested at eight different dose levels in both agonist mode and positive allosteric modulator mode. Peptone from Sigma-Aldrich (product number: P5905; CAS number 73049-73-7) was used in this Example. Dose response curves were then generated for each sample. Menthol and cinnamaldehyde were used as negative controls. In the agonist mode (AGO), 14:0 LPA at 10 μM (EC100) was used as a positive control and the assay buffer was used as a negative control. […]

| SMILES | activation of fGPR92 receptor |
| --- | --- |
| CC(C)[C@@H]1CC[C@@H](C)C[C@H]1O [Menthol, L-menthol] | did not activate fGPR92 receptor |
| O=C/C=C/c1ccccc1 [cinnamaldehyde, cinnamic aldehyde] | did not activate fGPR92 receptor |
